# Key:
# L-arabinose isomerase [1] = target: T1, L-arabinose isomerase (Bacillus amyloliquefaciens, UniProt A0A9P1JJ98); assay: L-arabinose isomerase bioconversion of D-galactose to D-tagatose, enzyme from Bacillus amyloliquefaciens IFO 3022; format: biochemical; conditions: for D-TAGATOSE / O.D. (X - B): 1.67 M D-galactose, 60° C., 120 min.
# T1 construct: crude enzyme
# T1 sequence (A0A9P1JJ98 1-499): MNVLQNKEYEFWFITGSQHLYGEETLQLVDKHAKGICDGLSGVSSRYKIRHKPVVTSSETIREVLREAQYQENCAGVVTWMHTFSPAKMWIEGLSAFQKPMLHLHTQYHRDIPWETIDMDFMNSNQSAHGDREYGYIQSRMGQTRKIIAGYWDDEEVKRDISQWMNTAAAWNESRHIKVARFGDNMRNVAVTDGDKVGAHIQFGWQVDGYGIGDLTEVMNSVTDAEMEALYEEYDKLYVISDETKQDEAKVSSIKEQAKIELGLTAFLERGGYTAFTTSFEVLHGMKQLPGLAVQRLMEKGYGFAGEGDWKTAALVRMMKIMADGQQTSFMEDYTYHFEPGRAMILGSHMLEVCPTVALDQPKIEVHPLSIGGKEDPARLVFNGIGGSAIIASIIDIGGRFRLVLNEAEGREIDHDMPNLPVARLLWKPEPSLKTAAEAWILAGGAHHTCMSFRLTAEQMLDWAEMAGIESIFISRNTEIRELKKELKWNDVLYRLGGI
# Method: Bacillus amyloliquefaciens (previously known as Bacillus subtilis, IFO 3022, was evaluated as a source of L-arabinose isomerase. Cells of the culture were propagated on the same medium as used in Example 1 in the presence of L-arabinose as a carbon source. Optimum pH, temperature, metal ion and metal ion concentration were evaluated as summarized below.
# In the following tests, sample B was comprised of 0.8 ml. D-galactose and 0.2 ml. water and sample X was comprised of 0.8 ml. D-galactose an 0.2 ml. enzyme. The dilution factor for the optical density (O.D.) reading was 200×. (The cystein carbazole method was used for the D-tagatose assay.)
# L-arabinose isomerase [2] = assay: L-arabinose isomerase bioconversion of D-galactose to D-tagatose, enzyme from Arthrobacter sp. ATCC 21920; format: biochemical; conditions: for D-TAGATOSE / O.D. (X - B): 1.67 M D-galactose, 60° C., 120 min.
# Method: The cultures were screened based on cell propagation on medium #1 of Example 3 in the presence of L-arabinose as a carbon source.
# Cells of Arthrobacter sp. ATCC 21920 were propagated on medium #1 of Example 3 in the presence of L-arabinose as a carbon source. Optimum pH, temperature, metal ion and metal ion concentration were evaluated on the cell extract containing L-arabinose isomerase as summarized below.
# In the following tests, sample B was comprised of 0.8 ml. D-galactose and 0.2 ml. water and sample X was comprised of 0.8 ml. D-galactose and 0.2 ml. enzyme. The dilution factor for the optical density (O.D.) reading was 200×.
# L-arabinose isomerase [3] = target: T2, L-arabinose isomerase (Lactiplantibacillus pentosus, UniProt Q6UA74); assay: L-arabinose isomerase activity assay (cysteine-carbazole ketose determination), enzyme from Lactobacillus pentosus ATCC 8041; format: biochemical; conditions: for % Activity with activator (None = 100): metal ion activator, bioconversion of D-galactose; for Enzyme Activity: 10 minutes, 0.1 M L-arabinose or 0.2 M D-galactose as substrate; for total activity, Present Invention Data / activity (10 min.), Present Invention Data: substrate as labelled, propagation 24 hours, 37° C., pH 6.5, BYF 100 medium; for activity (10 min.), Present Invention Data: per g cell mass
# T2 construct: whole cells, sonicated cell-free extract or immobilized, from L-arabinose-induced culture
# T2 sequence (Q6UA74 1-474): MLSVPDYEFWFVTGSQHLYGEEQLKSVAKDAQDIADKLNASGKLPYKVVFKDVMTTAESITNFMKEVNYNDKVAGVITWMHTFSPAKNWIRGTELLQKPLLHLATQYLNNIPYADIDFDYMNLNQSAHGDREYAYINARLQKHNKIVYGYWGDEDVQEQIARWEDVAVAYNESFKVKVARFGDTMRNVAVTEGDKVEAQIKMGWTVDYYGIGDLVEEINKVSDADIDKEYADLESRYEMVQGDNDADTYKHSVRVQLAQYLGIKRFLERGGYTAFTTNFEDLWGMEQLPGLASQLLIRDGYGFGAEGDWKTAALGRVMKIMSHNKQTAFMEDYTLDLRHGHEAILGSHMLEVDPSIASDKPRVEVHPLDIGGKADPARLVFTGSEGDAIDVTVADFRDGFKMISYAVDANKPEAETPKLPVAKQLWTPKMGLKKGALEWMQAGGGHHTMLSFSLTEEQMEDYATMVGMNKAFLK
# Method: The activity of L-arabinose isomerase can be assayed based on the appearance of keto-pentose (L-ribulose) or keto-hexose (D-tagatose) after incubation in the presence of the substrate aldo-pentose (L-arabinose) or aldo-hexose (D-galactose), respectively. The keto-pentose or keto-hexose can be measured colorimetrically utilizing cysteine-carbazole sulfuric acid as a reagent. The cysteine-carbazole method is described in, Zacharias Dische, "Color Reaction of Ketoses with Carbazole and Sulfuric Acid", Methods in Carbohydrate Chemistry (1962) page 481 [132]. Samples should be analyzed in duplicate, utilizing one sample as a blank to correct for substances which may interfere with the calorimetric ketose determination.
# For purposes of this specification, one unit of L-arabinose isomerase activity is defined as that amount of enzyme which is required to produce one micromole of L-ribulose or D-tagatose from the respective substrates, L-arabinose or D-galactose, following ten minutes of incubation under assay conditions.
# Following 24 hours of propagation, the cell mass was harvested and washed with a phosphate or maleate buffer at pH 6.5. The L-arabinose isomerase was extracted from the harvested cells by sonication.
# To 1.0 ml of the bioconversion reaction medium (using a dilution factor if needed) the following is added:
# 0.2 ml of cystein hydrochloride (1.5% in water);
# 6.0 ml 75% sulfuric acid (450 ml conc. sulfuric acid+190 ml water); and
# 0.2 ml of 0.12% alcohol solution of carbazole (0.12 gram carbazole in 100 ml 95% ethanol).
# The test tubes are incubated for 10 minutes at 57° C. and optical density (O.D.) is read at 540. The D-galactose substrate is used as a blank for reference.
# A series of bioconversions were conducted with varied parameters to determine optimum conditions for Lactobacillus pentosus L-arabinose isomerase.
# [4] = at about 25° C.; cited from earlier work
# [5] = test system: L-arabinose-L-ribulose-isomerase; conditions: Simpson, 1958; cited from earlier work
# L-arabinose isomerase [6] = conditions: cited from earlier work; for affinity of the isomerase for the sugar: Yamanaka and Wood, 1966
# L-arabinose isomerase [7] = target: T3, L-arabinose isomerase (Mycolicibacterium smegmatis, UniProt Q9RHG2); conditions: Izumori et al., 1978; cited from earlier work
# T3 construct: L-arabinose isomerases from Mycobacterium smegmatis induced by L-arabinose and D-galactose; host or cells: Mycobacterium smegmatis
# T3 sequence (Q9RHG2 whole entry): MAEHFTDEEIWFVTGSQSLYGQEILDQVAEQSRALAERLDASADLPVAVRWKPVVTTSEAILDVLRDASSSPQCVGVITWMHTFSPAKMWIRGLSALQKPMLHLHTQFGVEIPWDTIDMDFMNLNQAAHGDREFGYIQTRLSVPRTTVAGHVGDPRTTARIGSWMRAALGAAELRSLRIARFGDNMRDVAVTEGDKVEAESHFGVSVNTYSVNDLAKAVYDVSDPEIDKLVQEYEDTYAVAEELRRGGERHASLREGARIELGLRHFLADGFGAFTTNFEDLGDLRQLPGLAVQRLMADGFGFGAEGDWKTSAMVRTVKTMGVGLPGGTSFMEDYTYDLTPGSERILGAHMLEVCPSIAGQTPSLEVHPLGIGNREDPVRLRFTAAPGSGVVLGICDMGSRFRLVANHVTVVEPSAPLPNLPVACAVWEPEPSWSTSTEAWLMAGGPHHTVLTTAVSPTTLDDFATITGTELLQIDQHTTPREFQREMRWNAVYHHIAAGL
# [8] = 0.005 M metallic ion, O.D. 540, dilution 200×
structure (smiles),measurement,setting,value
[Zn+2] [Zinc],D-TAGATOSE,L-arabinose isomerase [1]; 0.005 M metallic ion,0.007 M
same,O.D. (X - B),L-arabinose isomerase [1]; [8],0.1596
same,D-TAGATOSE,L-arabinose isomerase [2]; 0.005 M metallic ion,0.012 M
same,O.D. (X - B),L-arabinose isomerase [2]; [8],0.2544
same,% Activity with activator (None = 100),L-arabinose isomerase [3],110%
O=C[C@H](O)[C@@H](O)[C@@H](O)[C@H](O)CO [D-galactose],maximum solubility in water,[4],about 70 % by weight
same,"Km (D-galactose), as %","L-arabinose isomerase [1]; crude enzyme, B. amylo.",12%
same,L-arabinose isomerase activity,"L-arabinose isomerase [2]; D-galactose as a substrate, 10 min. incubation",21 U/g/10 min.
same,"Km (D-galactose), as %","L-arabinose isomerase [2]; crude enzyme, Arthrobacter",15%
same,substrate quality for L-arabinose-L-ribulose-isomerase,[5],slow
same,activity of L-arabinose isomerase on the sugar,"L-arabinose isomerase [6]; Nakamatu, Biochim. Biophys. Acta 178",slight
same,affinity of the isomerase for the sugar,L-arabinose isomerase [6],low affinity
same,substrate of the isomerase,L-arabinose isomerase [7],not a substrate of the isomerase
same,Enzyme Activity,L-arabinose isomerase [3]; 35° C.,0.07 u/ml.
same,Enzyme Activity,L-arabinose isomerase [3]; 60° C.,0.90 u/ml.
same,"Km (D-galactose), as %","L-arabinose isomerase [3]; crude enzyme, L. pentosus",20%
same,"total activity, Present Invention Data",L-arabinose isomerase [3],395 u/L.
same,"activity (10 min.), Present Invention Data",L-arabinose isomerase [3],45 u/g.
"O=C[C@H](O)[C@@H](O)[C@@H](O)CO [L-arabinose, reference compound]",affinity of the isomerase for the sugar,L-arabinose isomerase [6],high affinity
same,"total activity, Published Data","L-arabinose isomerase [6]; substrate as labelled, propagation 24 hours, 37° C.",525 u/L.
same,"activity (10 min.), Published Data","L-arabinose isomerase [6]; substrate as labelled, propagation 24 hours, 37° C., per g cell mass",350 u/g.
same,Enzyme Activity,L-arabinose isomerase [3]; 35° C.,24.6 u/ml.
same,Enzyme Activity,L-arabinose isomerase [3]; 60° C.,68.1 u/ml.
same,"total activity, Present Invention Data",L-arabinose isomerase [3],"4,220 u/L."
same,"activity (10 min.), Present Invention Data",L-arabinose isomerase [3],425 u/g.
[Mn+2] [Manganese],D-TAGATOSE,L-arabinose isomerase [1]; 0.005 M metallic ion,0.035 M
same,O.D. (X - B),L-arabinose isomerase [1]; [8],0.7610
same,D-TAGATOSE,L-arabinose isomerase [1]; manganese ion 0.001 M,0.036 M
same,O.D. (X - B),L-arabinose isomerase [1]; manganese ion 0.001 M,0.7723
same,D-TAGATOSE,L-arabinose isomerase [1]; manganese ion 0.003 M,0.030 M
same,O.D. (X - B),L-arabinose isomerase [1]; manganese ion 0.003 M,0.6441
same,D-TAGATOSE,L-arabinose isomerase [1]; manganese ion 0.005 M,0.031 M
same,O.D. (X - B),L-arabinose isomerase [1]; manganese ion 0.005 M,0.6815
same,D-TAGATOSE,L-arabinose isomerase [1]; manganese ion 0.007 M,0.031 M
same,O.D. (X - B),L-arabinose isomerase [1]; manganese ion 0.007 M,0.6678
same,D-TAGATOSE,L-arabinose isomerase [1]; manganese ion 0.009 M,0.030 M
same,O.D. (X - B),L-arabinose isomerase [1]; manganese ion 0.009 M,0.6591
same,D-TAGATOSE,L-arabinose isomerase [1]; manganese ion 0.011 M,0.032 M
same,O.D. (X - B),L-arabinose isomerase [1]; manganese ion 0.011 M,0.7007
same,D-TAGATOSE,L-arabinose isomerase [1]; manganese ion 0.013 M,0.032 M
same,O.D. (X - B),L-arabinose isomerase [1]; manganese ion 0.013 M,0.6851
same,D-TAGATOSE,L-arabinose isomerase [2]; 0.005 M metallic ion,0.044 M
same,O.D. (X - B),L-arabinose isomerase [2]; [8],0.9574
same,D-TAGATOSE,L-arabinose isomerase [2]; manganese ion 0.001 M,0.041 M
same,O.D. (X - B),L-arabinose isomerase [2]; manganese ion 0.001 M,0.8919
same,D-TAGATOSE,L-arabinose isomerase [2]; manganese ion 0.003 M,0.035 M
same,O.D. (X - B),L-arabinose isomerase [2]; manganese ion 0.003 M,0.7600
same,D-TAGATOSE,L-arabinose isomerase [2]; manganese ion 0.005 M,0.040 M
same,O.D. (X - B),L-arabinose isomerase [2]; manganese ion 0.005 M,0.8848
same,D-TAGATOSE,L-arabinose isomerase [2]; manganese ion 0.007 M,0.042 M
same,O.D. (X - B),L-arabinose isomerase [2]; manganese ion 0.007 M,0.9057
same,D-TAGATOSE,L-arabinose isomerase [2]; manganese ion 0.009 M,0.051 M
same,O.D. (X - B),L-arabinose isomerase [2]; manganese ion 0.009 M,1.1175
same,D-TAGATOSE,L-arabinose isomerase [2]; manganese ion 0.011 M,0.043 M
same,O.D. (X - B),L-arabinose isomerase [2]; manganese ion 0.011 M,0.9333
same,D-TAGATOSE,L-arabinose isomerase [2]; manganese ion 0.013 M,0.049 M
same,O.D. (X - B),L-arabinose isomerase [2]; manganese ion 0.013 M,1.0753
same,% Activity with activator (None = 100),L-arabinose isomerase [3],177%
[Fe+3] [Ferric],D-TAGATOSE,L-arabinose isomerase [1]; 0.005 M metallic ion,0.018 M
same,O.D. (X - B),L-arabinose isomerase [1]; [8],0.3817
same,D-TAGATOSE,L-arabinose isomerase [2]; 0.005 M metallic ion,0.037 M
same,O.D. (X - B),L-arabinose isomerase [2]; [8],0.8003
[Ca] [Calcium],D-TAGATOSE,L-arabinose isomerase [1]; 0.005 M metallic ion,0.009 M
same,O.D. (X - B),L-arabinose isomerase [1]; [8],0.1802
same,D-TAGATOSE,L-arabinose isomerase [2]; 0.005 M metallic ion,0.033 M
same,O.D. (X - B),L-arabinose isomerase [2]; [8],0.7107
same,% Activity with activator (None = 100),L-arabinose isomerase [3],143%
[Mg] [Magnesium],D-TAGATOSE,L-arabinose isomerase [1]; 0.005 M metallic ion,0.005 M
same,O.D. (X - B),L-arabinose isomerase [1]; [8],0.1048
same,D-TAGATOSE,L-arabinose isomerase [2]; 0.005 M metallic ion,0.036 M
same,O.D. (X - B),L-arabinose isomerase [2]; [8],0.7890
same,% Activity with activator (None = 100),L-arabinose isomerase [3],141%
[Co+2] [Cobalt],D-TAGATOSE,L-arabinose isomerase [1]; 0.005 M metallic ion,0.005 M
same,O.D. (X - B),L-arabinose isomerase [1]; [8],0.0970
same,D-TAGATOSE,L-arabinose isomerase [2]; 0.005 M metallic ion,0.050 M
same,O.D. (X - B),L-arabinose isomerase [2]; [8],1.0764
same,% Activity with activator (None = 100),L-arabinose isomerase [3],200%
C[C@@H](O)[C@H](O)[C@H](O)[C@@H](O)C=O [D-fucose],affinity of the isomerase for the sugar,L-arabinose isomerase [6],low affinity
[Fe+2] [Ferrous],D-TAGATOSE,L-arabinose isomerase [1]; 0.005 M metallic ion,0.020 M
same,O.D. (X - B),L-arabinose isomerase [1]; [8],0.4438
same,D-TAGATOSE,L-arabinose isomerase [2]; 0.005 M metallic ion,0.037 M
same,O.D. (X - B),L-arabinose isomerase [2]; [8],0.8030
same,% Activity with activator (None = 100),L-arabinose isomerase [3],200%
same,% Activity over activator range,L-arabinose isomerase [3]; range 1 MM-10 MM,123-250%
